# Patent EP0212822A1, “A composition containing a plant growth regulator and an alkanol and a method of using the same” (ICI AMERICAS INC., priority 1985, dated 1987)
# Columns and labels:
# Malus communis (Apple) = test: Trunk injection, percent of growth based upon a control; type: in vivo; settings: 35 days after treatment
# Experimental: (§1) The examples which follow exemplify the improvements obtained by this invention. However, these examples are not intended to limit the scope of the invention. In Examples 1-41, the subject trees were injected at a distance approximately one foot from the soil line by drilling 7/32 inch diameter holes to a 2 inch depth at a 30-45° angle tangential to the trunk with a pressure injector (150 psi) purchased from the Asplundh Tree Expert Co., Company No. 346-3502. The results are expressed in terms of Retardation and Uniformity Ratings. The Retardation rating scale is as follows: • 0 = no retardataion • 1 = 1-20% retardation • 2 = 21-40% retardation • 3 = 41-60% retardation • 4 = 61-80% retardation • 5 = 81-100% retardation
# (2RS, 3RS)-1-(4-chlorophenyl-4,4-dimethyl-2,-1,2,4-triazol-1-yl)pentan-3-ol (PGR) was dissolved in 1 liter of solvent at room temperature and the resulting solution was stirred until clear, approximately 20 to 30 minutes. Two equal aliquots of the resulting solution were injected into two injection holes of the trunk of Malus communis (Apple) having a trunk diameter at the point of injection approximately 4 to 5 inches. The injection holes were approximately 12 inches above the soil surface. The percent of growth, based upon a control, was measured 35 days after treatment.
# [1] = Absorption kinetics: binding of 14C-labelled compound to sawdust; type: physicochemical, Betula pendula-Roth (Birch); settings: for µg in solution: 2 gm sawdust, 20 ml water, 10 mg/l 14C (II)
# Experimental: This example illustrates the binding (absorption) properties of the PGR of this invention to wood of the-conducting tissue of Betula pendula-Roth (Birch). The compounds of this invention preferably show partial and reversible binding which enhances the slow release effect by initial precipitation in the trunk. Sawdust samples were obtained from the outer wood of freshly cut, debarked logs. 2 gm samples of sawdust were shaken with 20 ml water containing ^14C triazole-labelled (II) at a concentration of 10 mg 1^-1. At intervals, the aqueous phase was subsampled, and the concentration of (II) determined by scintillation counting. A decrease in concentration reflects binding to the wood, expressed as kd (ratio of chemical bound to wood:chemical in solution).
# Water Oak = test: Trunk injection, holes at 4 inch intervals, Retardation and Uniformity Ratings; type: in vivo, Quercus nigra (Water Oak); parameters: key to Uniformity Rating (U): 0 = no effect from PGR; 1 = poor; 2 = fair; 3 = acceptable; 4 = very good; 5 = excellent; settings: 38 ml/hole
# Experimental: as §1
# The Uniformity Rating is a measure of the consistency of response to the treatment between different branches of the tree. The Uniformity scale employed is as follows: • 0 = no effect from PGR • 1 = poor • 2 = fair • 3 = acceptable • 4 = very good • 5 = excellent
# 10 (0.034 moles), 20 (0.068 moles) and 40 grams (0.136 moles) of (2RS, 3RS)-1-(4-chlorophenyl)-4,4-dimethyl-2-l,2,4-triazol-l-yl)pentan-3-ol (PGR) were dissolved in 1,1 and 1 liter, respectively, of methanol at room temperature and was stirred until the solution was clear, approximately 20 to 60 minutes. In these examples, the injection holes were placed at approximate 4 inch intervals.
# [2] = Solubility in methanol water mixtures (HPLC and UV absorption); type: physicochemical
# Experimental: An excess of compound of formula (II) was shaken with methanol water mixtures for a minimum of 4 hours. Samples were passed through a micropore filter to remove undissolved solid, and then centrifuged to remove any emulsified material. The resulting saturated solutions were analyzed by both HPLC and UV absorption against known standard solutions. […] In water alone, solubility is only 35 mg 1^-1 (ppm). Thus, formulations of formula (II) in methanol are low in viscosity when injected, and the PGR will rapidly precipitate within the trunk as the methanol becomes diluted with transpiration water.
# [3] = week 24, 10 g PGR in 1 liter methanol
# [4] = week 56, 10 g PGR in 1 liter methanol
smiles,measurement,setting,value
"CC(C)(C)[C@@H](O)[C@@H](Cc1ccc(Cl)cc1)n1cncn1 (racemic) [Formula (II), (2RS,3RS)-1-(4-chlorophenyl-4,4-dimethyl-2-1,2,4-triazol-1-yl)pentan-3-ol]","Growth, % of Control","Malus communis (Apple); 2 g PGR in 1 liter Water, total inj. vol. not given",84 % of Control
same,"Growth, % of Control","Malus communis (Apple); 2.5 g PGR in 1 liter Ethanol, total inj. vol. 200 ml",58 % of Control
same,"Growth, % of Control","Malus communis (Apple); 5 g PGR in 1 liter Ethanol, total inj. vol. 100 ml",59 % of Control
same,"Growth, % of Control","Malus communis (Apple); 5 g PGR in 1 liter Ethanol, total inj. vol. 200 ml",58 % of Control
same,"Growth, % of Control","Malus communis (Apple); 10 g PGR in 1 liter Ethanol, total inj. vol. 50 ml",70 % of Control
same,"Growth, % of Control","Malus communis (Apple); 10 g PGR in 1 liter Ethanol, total inj. vol. 100 ml",76 % of Control
same,"Growth, % of Control","Malus communis (Apple); 10 g PGR in 1 liter Ethanol, total inj. vol. 200 ml",56 % of Control
same,"Growth, % of Control","Malus communis (Apple); 10 g PGR in 1 liter Methanol, total inj. vol. 200 ml",59 % of Control
same,"Growth, % of Control","Malus communis (Apple); 10 g PGR in 1 liter Water, total inj. vol. 50 ml",100 % of Control
same,"Growth, % of Control","Malus communis (Apple); 10 g PGR in 1 liter Water, total inj. vol. 100 ml",103 % of Control
same,"Growth, % of Control","Malus communis (Apple); 20 g PGR in 1 liter Ethanol, total inj. vol. 25 ml",79 % of Control
same,"Growth, % of Control","Malus communis (Apple); 20 g PGR in 1 liter Ethanol, total inj. vol. 50 ml",82 % of Control
same,"Growth, % of Control","Malus communis (Apple); 20 g PGR in 1 liter Ethanol, total inj. vol. 100 ml",60 % of Control
same,"Growth, % of Control","Malus communis (Apple); 20 g PGR in 1 liter Methanol, total inj. vol. 100 ml",60 % of Control
same,"Growth, % of Control","Malus communis (Apple); 40 g PGR in 1 liter Ethanol, total inj. vol. 25 ml",77 % of Control
same,"Growth, % of Control","Malus communis (Apple); 40 g PGR in 1 liter Ethanol, total inj. vol. 50 ml",72 % of Control
same,"Growth, % of Control","Malus communis (Apple); 40 g PGR in 1 liter Methanol, total inj. vol. 50 ml",76 % of Control
same,"Growth, % of Control","Malus communis (Apple); 40 g PGR in 1 liter Methanol, total inj. vol. 100 ml",52 % of Control
same,"Growth, % of Control","Malus communis (Apple); 50 g PGR in 1 liter Ethanol, total inj. vol. 10 ml",90 % of Control
same,"Growth, % of Control","Malus communis (Apple); 80 g PGR in 1 liter Methanol, total inj. vol. 25 ml",68 % of Control
same,µg in solution,[1]; 0 hours,200 µg
same,kd (ratio of chemical bound to wood:chemical in solution),[1]; 0.5 hours,0.7
same,µg in solution,[1]; 0.5 hours,116 µg
same,kd (ratio of chemical bound to wood:chemical in solution),[1]; 1 hour,1.4
same,µg in solution,[1]; 1 hour,84 µg
same,kd (ratio of chemical bound to wood:chemical in solution),[1]; 2 hours,1.5
same,µg in solution,[1]; 2 hours,81 µg
same,kd (ratio of chemical bound to wood:chemical in solution),[1]; 4 hours,1.7
same,µg in solution,[1]; 4 hours,75 µg
same,kd (ratio of chemical bound to wood:chemical in solution),[1]; 8 hours,1.8
same,µg in solution,[1]; 8 hours,72 µg
same,kd (ratio of chemical bound to wood:chemical in solution),[1]; 24 hours,1.7
same,µg in solution,[1]; 24 hours,74 µg
same,kd (ratio of chemical bound to wood:chemical in solution),[1]; 48 hours,1.8
same,µg in solution,[1]; 48 hours,76 µg
same,Retardation Rating (R),Water Oak; [3],5 (5 = 81-100% retardation)
same,Uniformity Rating (U),Water Oak; [3],5
same,Retardation Rating (R),Water Oak; [4],5 (5 = 81-100% retardation)
same,Uniformity Rating (U),Water Oak; [4],5
same,solubility at 4 h,[2]; in water alone,35 µg/mL
same,solubility at 4 h,"[2]; organic solvent or mixture, 10 % Methanol in water",53 µg/mL
same,solubility at 4 h,"[2]; organic solvent or mixture, 20 % Methanol in water",89 µg/mL
same,solubility at 4 h,"[2]; organic solvent or mixture, 50 % Methanol in water",1200 µg/mL
same,solubility at 4 h,"[2]; organic solvent or mixture, 100 % Methanol",56000 µg/mL
same,solubility at 4 h,"[2]; water (0% methanol), organic solvent or mixture, 0 % Methanol",35 µg/mL
